Earlier results in US20050159419A1, “Compositions of a cyclooxygenase-2 selective inhibitor and a central nervous system stimulant for the treatment of central nervous system damage” (Pharmacia Corporation, priority 2003, published 2005).

What was measured:
[1] = test system: infarcted rats
[2] = test system: human stroke victims; conditions: coupled with physical therapy, compared to stroke victims receiving only physical therapy

CC(N)Cc1ccccc1 (centres unmarked) [amphetamine]
alternative circuit activation [1]: promoted alternative circuit activation
motor recovery [2]: accelerated motor recovery
